Source: patent publication US20240124491A1, “METHODS AND COMPOUNDS FOR TREATING FRIEDREICH'S ATAXIA” (Design Therapeutics, Inc., priority 2021, published 2024)

What follows are molecules tested on human FXN (assay: EC50 assay: FXN mRNA expression by qRT-PCR in GM15850 cells after 48 hrs compound treatment). Settings: Homo sapiens, 48 hrs incubation, hFXN expression normalized to hGAPDH (qRT-PCR), read-out: EC50 WT (nM, 48 hr).
Type: cell-based
In short: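 FXN transcript, normalized to GAPDH by TaqMan qRT-PCR, read out after 48 hrs of compound on GM15850 cells plated at 150,000 per well. Dosing used five 3-fold steps from 150 nM final, vehicle 0.01% DMSO.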

Compound	EC50 [nM]
Cc1c(C(=O)N2CCC(C#CC#CC3CCN(CCOCCOCCOCCOCCNC(=O)CCNC(=O)c4nc(NC(=O)CCNC(=O)c5cc(NC(=O)c6nc(NC(=O)CCNC(=O)c7cc(NC(=O)c8nccn8C)cn7C)cn6C)cn5C)cn4C)CC3)CC2)sc2c1C(c1ccc(Cl)cc1)=N[C@@H](CC(=O)NCCN1CCN(C)CC1)c1nnc(C)n1-2 [Compound 134]	100 to 500
Cc1cc(F)cc(C)c1Oc1ccc(C(C)(C)O)cc1-c1cn(C)c(=O)c2[nH]c(C(=O)N3CCC(C#CC#CC4CCN(CCOCCOCCOCCOCCNC(=O)CCNC(=O)c5nc(NC(=O)CCNC(=O)c6cc(NC(=O)c7nc(NC(=O)CCNC(=O)c8cc(NC(=O)c9nccn9C)cn8C)cn7C)cn6C)cn5C)CC4)CC3)cc12 [Compound 135]	100 to 500
CC(=O)Nc1c(O[C@@H](C)c2ccccc2)cc(C=O)c(N2CCC(C#CC#CC3CCN(CCOCCOCCOCCOCCNC(=O)CCNC(=O)c4nc(NC(=O)CCNC(=O)c5cc(NC(=O)c6nc(NC(=O)CCNC(=O)c7cc(NC(=O)c8nccn8C)cn7C)cn6C)cn5C)cn4C)CC3)CC2)c1F [Compound 136]	> 500
Cc1sc2c(c1C)C(c1ccc(Cl)cc1)=N[C@@H](CC(=O)N1CCC(C#CC#CC3CCN(CCOCCOCCNC(=O)CCNC(=O)c4nc(NC(=O)CCNC(=O)c5cc(NC(=O)c6nc(NC(=O)CCNC(=O)c7cc(NC(=O)c8nccn8C)cn7C)cn6C)cn5C)cn4C)CC3)CC1)c1nnc(C)n1-2 [Compound 138]	< 100
Cc1sc2c(c1C)C(c1ccc(Cl)cc1)=N[C@@H](CC(=O)N1CCC(C#CC#CC3CCN(CCOCCOCCOCCNC(=O)CCNC(=O)c4nc(NC(=O)CCNC(=O)c5cc(NC(=O)c6nc(NC(=O)CCNC(=O)c7cc(NC(=O)c8nccn8C)cn7C)cn6C)cn5C)cn4C)CC3)CC1)c1nnc(C)n1-2 [Compound 139]	< 100
Cc1sc2c(c1C)C(c1ccc(Cl)cc1)=N[C@@H](CC(=O)N1CCC(C#CC#CC3CCN(CCOCCOCCOCCOCCOCCNC(=O)CCNC(=O)c4nc(NC(=O)CCNC(=O)c5cc(NC(=O)c6nc(NC(=O)CCNC(=O)c7cc(NC(=O)c8nccn8C)cn7C)cn6C)cn5C)cn4C)CC3)CC1)c1nnc(C)n1-2 [Compound 140]	< 100
Cc1sc2c(c1C)C(c1ccc(Cl)cc1)=N[C@@H](CC(=O)N1CCC(C#CC#CC3CCN(CCOCCOCCOCCOCCOCCOCCNC(=O)CCNC(=O)c4nc(NC(=O)CCNC(=O)c5cc(NC(=O)c6nc(NC(=O)CCNC(=O)c7cc(NC(=O)c8nccn8C)cn7C)cn6C)cn5C)cn4C)CC3)CC1)c1nnc(C)n1-2 [Compound 141]	< 100
Cc1sc2c(c1C)C(c1ccc(Cl)cc1)=N[C@@H](CC(=O)N1CCC(C#CC#CC3CCN(CCOCCOCCOCCOCCOCCOCCOCCNC(=O)CCNC(=O)c4nc(NC(=O)CCNC(=O)c5cc(NC(=O)c6nc(NC(=O)CCNC(=O)c7cc(NC(=O)c8nccn8C)cn7C)cn6C)cn5C)cn4C)CC3)CC1)c1nnc(C)n1-2 [Compound 142]	< 100
CC(=O)N1c2ccc(-c3ccc(C(=O)N4CCC(C#CC#CC5CCN(CCOCCOCCNC(=O)CCNC(=O)c6nc(NC(=O)CCNC(=O)c7cc(NC(=O)c8nc(NC(=O)CCNC(=O)c9cc(NC(=O)c%10nccn%10C)cn9C)cn8C)cn7C)cn6C)CC5)CC4)cc3)cc2C(Nc2ccc(Cl)cc2)C[C@@H]1C (some centres unmarked) [Compound 144]	< 100
CC(=O)N1c2ccc(-c3ccc(C(=O)N4CCC(C#CC#CC5CCN(CCOCCOCCOCCOCCNC(=O)CCNC(=O)c6nc(NC(=O)CCNC(=O)c7cc(NC(=O)c8nc(NC(=O)CCNC(=O)c9cc(NC(=O)c%10nccn%10C)cn9C)cn8C)cn7C)cn6C)CC5)CC4)cc3)cc2C(Nc2ccc(Cl)cc2)C[C@@H]1C (some centres unmarked) [Compound 145]	< 100
CC(=O)N1c2ccc(-c3ccc(C(=O)N4CCC(C#CC#CC5CCN(CCOCCOCCOCCOCCOCCOCCNC(=O)CCNC(=O)c6nc(NC(=O)CCNC(=O)c7cc(NC(=O)c8nc(NC(=O)CCNC(=O)c9cc(NC(=O)c%10nccn%10C)cn9C)cn8C)cn7C)cn6C)CC5)CC4)cc3)cc2C(Nc2ccc(Cl)cc2)C[C@@H]1C (some centres unmarked) [Compound 150]	< 100
